Measured values reported in publication PMC12135063, “Pharmaceutical Analysis of Protein–Peptide Coformulations and the Influence of Polysorbates” (Molecular Pharmaceutics, 2025).
“And” between values parts separate entries of the source, which are not always exact repeats. Equal entries are not always repeated. Where two headings read alike, the source gives them in different places. Blank lines part the entries; values can stand above or below the molecule they belong to. *1 amine or outer side, *2 acyl side, *3 side chain or, on linkers, in order; H or OH if unused. Where a SMILES comes first, the peptide text is derived from it. Side-chain parts run from the residue outwards. [ ]: non-standard residue; d: D form. The star is where a group is joined. γGlu = O=C(O)[C@H](CCC(=O)[*:2])N[*:1]; αMeF = C[C@](N)(Cc1ccccc1)C(=O)O; αMeK = C[C@](N)(CCCCN)C(=O)O; Lauroyl = CCCCCCCCCCCC(=O)*; αMeS = C[C@](N)(CO)C(=O)O; AEEA = NCCOCCOCC(=O)O; Aib = CC(C)(N)C(=O)O

Experiments:
HSA [1] = molecular target: T1, HSA (Homo sapiens, UniProt P02768); experiment: ITC titration of polysorbate into HSA in the absence and presence of MEDI7219; format: binding; conditions: for ΔG / ΔH / –TΔS / Kd: 30 °C; for Kd: [HSA] = 0.15 mM, read-out: dissociation constant; for αii (K A/B/K A): ratio of association constants with/without MEDI7219
T1 construct: purchased Sigma-Aldrich UK; host or cells: human serum
Experimental: Lyophilized protein powders were rehydrated by adding buffer to the protein to achieve a concentration of 10 mg/mL, then stored at 5 °C for 72 h or until fully dissolved. Polysorbate concentrations chosen were 0.1× and 1× the critical micelle concentration (CMC) of each respective polysorbate. Due to the dilution of injection by the ITC, polysorbate formulations were formulated at 10 times the desired concentration. ITC experiments were performed using a Microcal PEAQ-ITC instrument from Malvern Panalytical. Prior to each experiment, the sample cell and syringe were cleaned using 20% Contrad 70 detergent, rinsed with ultrapure water, and dried using methanol. Titration experiments were conducted at 30 °C to ensure that the experimental temperature was above laboratory ambient temperature. As the Microcal PEAQ-ITC lacks a cooling unit, it was necessary to conduct experiments at a temperature that could be maintained consistently. The reference cell was filled with ultrapure water for all experiments. The 200 μL sample cell was filled with protein solution, and the 40 μL injection syringe was filled with polysorbate solution and equilibrated at 5 °C below the experimental temperature. […] Experiments comprised 14 injections of 2.5 μL at an injection speed of 0.5 μL/s. The time between injections was set long enough to allow the heat signals to return to the baseline before the next injection. The solution in the reaction cell was continuously stirred at a speed of 500 rpm. Experiments requiring the titration of peptide or surfactant into protein–surfactant or protein–peptide required the continuation of one experiment into the next, to maintain precise concentration ratios between experimental pathways. As a result, once an experiment had concluded, excess solution was withdrawn and the next titration was conducted into the resulting solution. A reference experiment of polysorbate injected into buffer solution was conducted under identical conditions and subtracted from each run that contained polysorbate in the injection syringe. […] Data were analyzed using MicroCal PEAQ-ITC Analysis Software v1.41. The binding model was analyzed using the one set of binding sites software preset, resulting in the values of changes in the Gibbs free energy (ΔG), enthalpy (ΔH), and entropy in relation to temperature (−TΔS). Each experiment was repeated a minimum of three times to assess the reproducibility.

HSA [2] = molecular target: T1, HSA; experiment: ITC titration of MEDI7219 into HSA in the absence and presence of polysorbate; format: binding; conditions: for Kd: read-out: dissociation constant; for αi (K B/A/K B): ratio of association constants with/without polysorbate
Experimental: Lyophilized protein powders were rehydrated by adding buffer to the protein to achieve a concentration of 10 mg/mL, then stored at 5 °C for 72 h or until fully dissolved. Polysorbate concentrations chosen were 0.1× and 1× the critical micelle concentration (CMC) of each respective polysorbate. Due to the dilution of injection by the ITC, polysorbate formulations were formulated at 10 times the desired concentration. ITC experiments were performed using a Microcal PEAQ-ITC instrument from Malvern Panalytical. Prior to each experiment, the sample cell and syringe were cleaned using 20% Contrad 70 detergent, rinsed with ultrapure water, and dried using methanol. Titration experiments were conducted at 30 °C to ensure that the experimental temperature was above laboratory ambient temperature. As the Microcal PEAQ-ITC lacks a cooling unit, it was necessary to conduct experiments at a temperature that could be maintained consistently. The reference cell was filled with ultrapure water for all experiments. The 200 μL sample cell was filled with protein solution, and the 40 μL injection syringe was filled with polysorbate solution and equilibrated at 5 °C below the experimental temperature. The reference power was set to 41.86 μJ/s (10 μcal/s). Experiments comprised 14 injections of 2.5 μL at an injection speed of 0.5 μL/s. The time between injections was set long enough to allow the heat signals to return to the baseline before the next injection. The solution in the reaction cell was continuously stirred at a speed of 500 rpm. Experiments requiring the titration of peptide or surfactant into protein–surfactant or protein–peptide required the continuation of one experiment into the next, to maintain precise concentration ratios between experimental pathways. As a result, once an experiment had concluded, excess solution was withdrawn and the next titration was conducted into the resulting solution. A reference experiment of polysorbate injected into buffer solution was conducted under identical conditions and subtracted from each run that contained polysorbate in the injection syringe. For experiments that contained MEDI7219 in the injection syringe, a control experiment could not be subtracted in the same manner as the polysorbate experiments. This was suspected to be a consequence of limitations in the software and the interactions generating small binding heats, leading to a noisier thermogram. However, a fitted offset was used instead, which reduced noise and allowed a smooth heat integration. Data were analyzed using MicroCal PEAQ-ITC Analysis Software v1.41. The binding model was analyzed using the one set of binding sites software preset, resulting in the values of changes in the Gibbs free energy (ΔG), enthalpy (ΔH), and entropy in relation to temperature (−TΔS). Each experiment was repeated a minimum of three times to assess the reproducibility.

HSA [3] = molecular target: T1, HSA; experiment: DSC thermal stability of HSA with MEDI7219 and polysorbates; format: physicochemical; conditions: DSC of 10 mg/mL HSA, no polysorbate, MEDI7219 10 mg/mL where ligand
Experimental: Lyophilized protein and MEDI7219 were rehydrated by adding buffer to achieve a concentration of 30 mg/mL, then stored at 5 °C for 72 h or until fully dissolved. Polysorbate solutions were prepared at 3 times higher than the desired concentration to account for dilution in the formulation after mixing with MEDI7219. Polysorbate concentrations in experiments were 0.1× and 1× each polysorbates respective CMC. Samples were produced by adding equal volumes of each component to provide the desired formulation. DSC experiments were conducted using a Microcal PEAQ-DSC instrument from Malvern Panalytical. Prior to each experiment, DSC cells were washed with 2% Decon 90 detergent and then rinsed with ultrapure water. The DSC capillary cell volume was 250 μL for both reference and sample cells; for each experiment, the reference cell contained buffer solution. […] A reference scan of the buffer solution was conducted under identical conditions and subtracted from each run. Data were analyzed using MicroCal PEAQ-DSC Analysis Software v1.64.

HSA [4] = molecular target: T1, HSA; design: method as in not given; conditions: native GLP-1, reported value; ref not given; cited from earlier work
[5] = polysorbate (1 × CMC) → HSA + MEDI7219
[6] = polysorbate (1 × CMC) → HSA + MEDI7219, [MEDI7219] = 2.5 mM
[7] = polysorbate (1 × CMC) → HSA, MEDI7219 absent
[8] = MEDI7219 → HSA + RG T20 (1 × CMC), 30 °C
[9] = MEDI7219 → HSA + RG T80 (1 × CMC), 30 °C
[10] = MEDI7219 → HSA + SR T20 (1 × CMC), 30 °C
[11] = MEDI7219 → HSA + SR T80 (1 × CMC), 30 °C
[12] = MEDI7219 → HSA, no polysorbate, 30 °C

Molecule: Polyoxyethylene (20) sorbitan monolaurate [RG T20]
ΔG (HSA [1]; [5]): –15.40 (±0.77) kJ mol^–1
ΔH (HSA [1]; [5]): –9.07 (±9.4 × 10^–7) kJ mol^–1
–TΔS (HSA [1]; [5]): –6.36 (±0.26) kJ mol^–1
Kd (HSA [1]; [6]): 2210 µM
αii (K A/B/K A) (HSA [1]; [5]): 0.47
ΔG (HSA [1]; [7]): –17.30 (±0.87) kJ mol^–1
ΔH (HSA [1]; [7]): –83.70 (±36.7) kJ mol^–1
–TΔS (HSA [1]; [7]): 66.40 (±2.74) kJ mol^–1
Kd (HSA [1]; [7]): 1030 µM

Molecule: Polyoxyethylene (20) sorbitan monolaurate [SR T20]
ΔG (HSA [1]; [5]): –16.10 (±0.81) kJ mol^–1
ΔH (HSA [1]; [5]): –4.19 (±0.62) kJ mol^–1
–TΔS (HSA [1]; [5]): –11.90 (±0.50) kJ mol^–1
Kd (HSA [1]; [6]): 1690 µM
αii (K A/B/K A) (HSA [1]; [5]): 0.43
ΔG (HSA [1]; [7]): –18.20 (±0.91) kJ mol^–1
ΔH (HSA [1]; [7]): –43.10 (±6.15) kJ mol^–1
–TΔS (HSA [1]; [7]): 24.90 (±1.03) kJ mol^–1
Kd (HSA [1]; [7]): 721 µM

Molecule: native GLP-1: native glucagon-like peptide-1, literature comparison
association constant (HSA [4]): 2.3 × 10^8 M^–1

The next lines start with the values.

ΔG (HSA [2]; [8]): –21.8 (±0.87) kJ mol^–1
–TΔS (HSA [2]; [8]): –15.3 (±1.28) kJ mol^–1
Kd (HSA [2]; [8]): 176 µM
ΔH (HSA [2]; [9]): 25.3 (±0.70) kJ mol^–1
–TΔS (HSA [2]; [9]): –52.1 (±4.34) kJ mol^–1
Kd (HSA [2]; [9]): 24 µM
αi (K B/A/K B) (HSA [2]; MEDI7219 → HSA + RG T80 (1 × CMC)): 1.68
ΔH (HSA [2]; [10]): 27.8 (±9.32) kJ mol^–1
–TΔS (HSA [2]; [10]): –52.5 (±4.35) kJ mol^–1
Kd (HSA [2]; [10]): 55.6 µM
ΔH (HSA [2]; [11]): 25.4 (±1.03) kJ mol^–1
–TΔS (HSA [2]; [11]): –51.3 (±6.16) kJ mol^–1
Kd (HSA [2]; [11]): 35.1 µM
αi (K B/A/K B) (HSA [2]; MEDI7219 → HSA + SR T80 (1 × CMC)): 1.30
ΔH (HSA [2]; [12]): 35.4 (±8.19) kJ mol^–1
–TΔS (HSA [2]; [12]): –60.9 (±7.70) kJ mol^–1
Kd (HSA [2]; MEDI7219 → HSA, no polysorbate, 30 °C, [HSA] = 0.15 mM, [MEDI7219] = 2.5 mM, average across all experiments): 40.3 µM
association constant (HSA [2]; MEDI7219 → HSA, no polysorbate, 30 °C, example titration): 2.4 × 10^4 M^–1
decrease of dissociation constant of MEDI7219 (HSA [2]; in the presence of RG T80 versus its absence): 2 fold
Tm 2 (HSA [3]): 74 °C and 74.0 (±0.1) °C
total area (HSA [3]; 20–105 °C at 60 °C/h): 806.3 (±5.8) kJ/mol
Molecule: CCCCCCCCCCCC(=O)N[C@@H](CCC(=O)NCCOCCOCC(=O)NCCOCCOCC(=O)NCCCC[C@H](NC(=O)[C@H](C)NC(=O)[C@@H](NC(=O)[C@](C)(Cc1ccccc1)NC(=O)[C@H](CCC(=O)O)NC(=O)[C@](C)(CCCCN)NC(=O)[C@H](C)NC(=O)[C@H](C)NC(=O)[C@H](CCC(=O)O)NC(=O)CNC(=O)[C@H](CCC(=O)O)NC(=O)[C@H](CC(C)C)NC(=O)[C@H](CCCCNC(=O)COCCOCCNC(=O)COCCOCCNC(=O)CC[C@H](NC(=O)CCCCCCCCCCC)C(=O)O)NC(=O)[C@H](CO)NC(=O)[C@](C)(CO)NC(=O)[C@@H](NC(=O)[C@H](CC(=O)O)NC(=O)[C@H](CO)NC(=O)[C@@H](NC(=O)[C@](C)(Cc1ccccc1)NC(=O)[C@H](CO)NC(=O)CNC(=O)[C@H](CCC(=O)O)NC(=O)C(C)(C)NC(=O)[C@@H](N)Cc1c[nH]cn1)[C@@H](C)O)C(C)C)[C@@H](C)CC)C(=O)N[C@H](C(=O)N[C@H](C(=O)N[C@@H](CCC(=O)O)C(=O)NCC(=O)NCC(N)=O)C(C)C)C(C)C)C(=O)O [MEDI7219] (H-H[Aib]EGS[αMeF]TSDV[αMeS]SK([AEEA-AEEA-γGlu-Lauroyl])LEGEAA[αMeK]E[αMeF]IAK([AEEA-AEEA-γGlu-Lauroyl])VVEGG-NH2; N-terminus and C-terminus assumed)

ΔG (HSA [1]; [5]): –16.00 (±0.80) kJ mol^–1
ΔH (HSA [1]; [5]): –8.75 (±4.46) kJ mol^–1
–TΔS (HSA [1]; [5]): –7.25 (±0.23) kJ mol^–1
Kd (HSA [1]; [6]): 1760 µM
αii (K A/B/K A) (HSA [1]; [5]): 0.57
ΔG (HSA [1]; [7]): –17.40 (±0.87) kJ mol^–1
ΔH (HSA [1]; [7]): –9.13 (±1.29) kJ mol^–1
–TΔS (HSA [1]; [7]): –8.26 (±0.34) kJ mol^–1
Kd (HSA [1]; [7]): 1010 µM
Molecule: polyoxyethylene (20) sorbitan monooleate [RG T80]

ΔG (HSA [1]; [5]): –16.80 (±0.84) kJ mol^–1
ΔH (HSA [1]; [5]): –8.72 (±2.7 × 10^–5) kJ mol^–1
–TΔS (HSA [1]; [5]): –8.09 (±0.33) kJ mol^–1
Kd (HSA [1]; [6]): 1280 µM
αii (K A/B/K A) (HSA [1]; [5]): 0.40
ΔG (HSA [1]; [7]): –19.10 (±0.10) kJ mol^–1
ΔH (HSA [1]; [7]): –30.10 (±2.02) kJ mol^–1
–TΔS (HSA [1]; [7]): 11.00 (±0.45) kJ mol^–1
Kd (HSA [1]; [7]): 513 µM
Molecule: polyoxyethylene (20) sorbitan monooleate [SR T80]
